A melting point compilation (Tetko et al.; mined from patent text by program, amines drawn as free bases though some values may be those of a salt)

melting point [°C] | Compound
239 to 247 | Nc1nc(-c2cc(Cl)nc(Cl)c2)cs1
157 to 159 | O=C(O)CCCc1ccc(NS(=O)(=O)c2cccc(C(F)(F)F)c2)cn1
253 to 255 | O=c1c2c(c3cccnc3n1-c1ccccc1)OCCC2
273 | Cc1nc(NC(=O)c2cnn3c(C(F)(F)F)cc(-c4ccc(C(F)(F)F)cc4)nc23)sc1S(=O)(=O)N1CCN(C)CC1
144 to 146 | CCCCCCCCCCOc1ccccc1-c1nc(N)c(N=O)c(=O)[nH]1
144 to 146 | COc1cc(I)ccc1C(=O)O
107 to 109 | CCOC(=O)c1cn2c3c(cc(C)cc3c1=O)C1CCCCC12 (stereo not drawn)
251 to 252 | CS(=O)(=O)c1ccc(Oc2cc(OCc3ccccc3)c3[nH]c(C(N)=O)cc3c2)cc1
124 to 127 | CC(C)(C)OC(=O)CCN(CCC12CC3CC(CC(C3)C1)C2)C(=O)NCCCc1ccncc1
114 to 116 | Cn1c(C(F)(F)F)cc(=O)n(-c2ccc(Cl)cc2F)c1=O
137 to 138 | Cc1ccc(C(C)(C)C)cc1S(=O)(=O)Cl
250 to 252 | CC(C)CC(=O)Oc1ccc2cc(C(=N)N)ccc2c1
152 to 153 | Oc1nn(-c2ccccc2)cc1CCc1cscn1
212 to 214 | COc1ccc(-c2nc(SC(F)(F)C(F)F)[nH]c2-c2ccncc2)cc1
178 | O=C1NC(=O)[C@@]2(C[C@@H](C(=O)NO)Oc3ccc(F)cc32)N1
179 to 180 | O=C(O)Cc1cscc1Nc1c(Cl)cccc1Cl
115 to 118 | CCN(CC)CCOc1ccc2c3c(cccc13)C(=O)c1c-2oc2ccccc12
123 to 125 | CCCCCS(=O)(=O)NC(=O)/C=C/c1ccc(OCCOC)cc1Oc1ncc(C(F)(F)F)cc1Cl
123 to 125 | COS(=O)c1cc(C(=O)CBr)ccc1C (stereo not drawn)
85 to 87 | Cc1cc(C(=O)C(=O)O)c(O)cc1Oc1ccccc1
135 | CC(C)(C)c1ccc(OC(=O)n2c3c(c(=O)n(C4CCCCO4)c2=O)CCC3)cc1 (stereo not drawn)
109 | CCCc1ccc(S(=O)(=O)NCc2ccccn2)cc1
206 to 207 | OCc1c[nH]c(=S)n1[C@H]1CCc2c(F)cc(F)cc2C1
72 to 74 | O=C(c1ccc(F)cc1)c1noc(CN2CCN(c3ccccc3)CC2)n1

melting point [°C] | Compound
137 to 139 | CCOC(=O)c1cc(=O)c2c(OCC(O)COc3ccc(C#N)cc3)cccc2o1 (stereo not drawn)
76 to 79.5 | NC(=O)N(O)CC(=O)N(Cc1cccs1)c1ccc(Br)cc1
65.9 to 66.7 | CCCCCCCCC(=O)NCCc1ccc(O)cc1
166 to 168 | Cc1ccc2nc(N3CCNCC3)c(=O)n(-c3ccccc3)c2c1
164 | COCc1cnc2c(NC(=O)c3c(Cl)cccc3Cl)cccc2c1CCl
98 to 101 | CC(C)CCNCCCN1C(=O)C2(COc3cc4c(cc32)CCO4)c2ccccc21 (stereo not drawn)
161 to 162 | CCCNC(=O)CCCCCn1c(COCC)nc2c(N)nc3ccccc3c21
143 to 144 | CCCOc1cccc(Oc2ccc3c(c2)C=C(C(=O)Nc2ccc(CN(C)C4CCOCC4)cc2)CCS3(=O)=O)c1
114 to 118 | CCOC(=O)CNC1=C(C(=O)c2cccnc2Cl)CCC1
190 | Cn1c(=O)cc(-c2nc(-c3ccccc3)cs2)c2cc(C(c3ccc(Cl)cc3)c3cnc(-c4ccccc4)[nH]3)ccc21 (stereo not drawn)
32 to 34 | CCOC(=O)CCC(C)c1ccc(O)cc1 (stereo not drawn)
245 to 246 | Cc1c(-c2ccc(OC(F)F)c(OC3CC3)c2)[nH]c2cn[nH]c(=O)c12
142 to 143 | CC1(C)CCc2c(N3CCOCC3)nc3sc4c(NCCCN5CCCC5=O)ncnc4c3c21
98 to 101 | CC(CS)C(=O)N1c2ccccc2CCC1C(=O)O (stereo not drawn)
231 to 233 | Nc1nc(NCCSSCCNc2n[nH]c(N)n2)n[nH]1
107 to 109 | O=C(Cc1ccc(CN2CCCC2)cc1)NCc1ccc(Br)cc1
146 | CCNC(=O)COc1cc2c(c(Cl)c1Cl)C(=O)C(C)(C(C)C)C2 (stereo not drawn)
91 to 103 | COc1cc(C2CCN(C[C@@H](C)O)CC2)ccc1Nc1ncc2ccc(-c3ccccc3N(C)S(C)(=O)=O)n2n1
84 to 85 | Cc1cc(OCc2coc(C=Cc3ccc(OC(F)(F)F)cc3)n2)ccc1COCCn1ccnn1
108 to 115 | CC(C)(C)c1cc(/C=C/C=C/C(=O)NCCN2CCC(c3c[nH]c4ccccc34)CC2)cc(C(C)(C)C)c1O
> 250 | Cc1nccn1-c1cccc(C2=Nc3cc(O)c(-c4ccccc4F)cc3NC(=O)C2)c1
245 | Cc1cccc(NC(=O)NCC(=O)N(CC(=O)N2CCCCCC2)c2ccccc2)c1
124 to 128 | CCCCC12CCC3C4=C(CCC3C1CCC2=O)CC(OC)=CC4 (stereo not drawn)
114 to 118 | CCN1C(=O)C(C)(C)C(=O)N(C)c2cc(CN(CCn3ccc4oc(C)cc4c3=O)Cc3cnccc3Cl)ccc21

melting point [°C] | Compound
92 to 94 | O=C(CCC(O)c1ccccc1)NCc1ccccc1 (stereo not drawn)
> 400 | CC(=O)NC1CCC(NC(=O)Nc2ccc(C(F)(F)F)cc2)CC1 (stereo not drawn)
204 to 205 | O=C(O)c1ccc(Nc2cc3c4c(c2)CCCC4CCC3)cc1
77 to 81 | Cc1csc(C(=O)C(F)(F)F)n1
178 to 180 | CC(C)N1OCC(=Cc2cc(C(C)(C)C)c(O)c(C(C)(C)C)c2)C1=O
78 to 79 | Brc1ccc2ccncc2c1
179 to 180 | COc1nc2c(c3ccccc13)c1cc(Cl)ccc1n2C
214 to 215 | NCc1ccc(-c2nc(-c3ccc(F)cc3)c(-c3ccncc3)[nH]2)cc1
66 to 67 | N#CCSc1cc(F)cc(F)c1N
199 to 201 | O=C1Nc2cccnc2N(C(=O)N2CCCCC2CCCCN2CCCCC2)c2ccccc21 (stereo not drawn)
89 to 92 | O=C(CN1CCN(C(=O)CCCCCS)CC1)Nc1nc2ccccc2s1
166 to 168 | COc1ccc(-n2nc(Sc3ccc(C)cc3C)c(C)c(C#N)c2=O)cc1
54 to 56 | CCCCCCCCCCCCCCCCCNC(=O)O[C@@H]1CCO[C@H]1COCc1ccccc1 (relative stereo)
74 | CC(C)OC(=O)c1cc(-c2nn(C)c(C(F)(F)F)c2CF)c(F)cc1Cl
48 to 50 | COC(=O)c1ccc(C(O)C#Cc2ccccc2)cc1 (stereo not drawn)
215 to 216 | CC(=O)Nc1ccc(/C=C/C(=O)NCC(=O)N(C)c2ccc(C)c(CO)c2C)cn1
185 to 186 | NC(=O)N(O)CCNC(=O)c1ccc(Oc2ccccc2)cc1
72 to 73 | CCOC(=O)c1ccc(/C=C(\C)c2cc(OC)c3c(c2)C(C)(C)CC3(C)C)cc1
198 | Clc1cccc(-c2nc(-c3ccc4c(c3)OCO4)c(-c3ccc4c(c3)OCO4)[nH]2)c1Cl
111 to 112 | CCOC(=O)CC1c2cc(OC)ccc2N(c2nc(Cl)nc3ccccc23)C1C (stereo not drawn)
130 to 131 | CCC(CC)c1ccc(OC)c2nc(Oc3c(C)cc(Cl)cc3Cl)n(C)c12
143 to 144 | CCC(O)(c1ccc(O)cc1O)c1ccccc1C(F)(F)F (stereo not drawn)
131 to 133 | Cc1ccccc1Nc1c(C(=O)C(C)C)cnc2c(O)cccc12
198 to 199 | Cc1nnc(-c2ccc3occ(-c4ccc(S(C)(=O)=O)cc4Cl)c3c2)o1

melting point [°C] | Compound
133 to 137 | CNCCOc1ccc(C2=C(c3ccccc3)CCCc3cc(OC4CCCCO4)ccc32)cc1 (stereo not drawn)
77 to 78 | c1csc(-c2nc(CCOc3ccc(CCCn4ccnc4)cc3)co2)c1
> 250 | Nc1nc2ccccc2c2c1nc(CO)n2CC1(O)CCOCC1
142 to 146 | Cc1nc(N2CCc3ccccc3CC2)c(C#N)c(=O)n1NC(C)C
268 to 271 | O=C(NCCN1CCOCC1)Nc1nc2ccc(OCc3c(Cl)cccc3Cl)cc2s1
121 to 122 | COCc1cn(-c2ccccc2)nc1OCc1ccc(OCc2nc(-c3ccco3)oc2C)c(OC)c1
212 to 214 | O=C1c2ccccc2C(=O)N1CCCn1c2ccccc2c2nc3ccccc3nc21
173 to 174 | COc1ccc(-c2nc(S(=O)(=O)CC(F)(F)F)[nH]c2-c2ccc(OC)cc2)cc1
77.8 to 78.5 | C=CCOc1ccc(C(=O)CC(C)(C#N)c2ccc(OC)cc2OC)cc1 (stereo not drawn)
142 to 144 | CCS(=O)(=O)N(C)[C@@H]1c2cc(C#N)ccc2OCC[C@H]1O (relative stereo)
151 | Cn1nc(-c2cc([N+](=O)[O-])c(Cl)cc2F)c(Cl)c1S(C)=O (stereo not drawn)
189 to 192 | Cc1cc2c3c(cc(C)c2[nH]c1=O)C(C)C(C)(CN=[N+]=[N-])O3 (stereo not drawn)
68 to 71 | COc1ccc(S(=O)(=O)N2CSC(C)(C)[C@@H]2C(=O)NO)cc1
99 to 101 | CNC(=O)N(N)CC(C)O (stereo not drawn)
137 to 138 | COc1ccc2c(c1)c1c3c(ccc1n2C)C(=O)N(CCN(C)C)C3=O
90 to 96 | CCCCn1c(=O)c(C(=O)OCC)c(N2CCN(C(=O)c3cccs3)CC2)c2cccnc21
240 to 242 | CCCc1nc(C)cc(=O)n1CCOc1ccc(C=C2SC(=O)NC2=O)cc1
216 to 222 | O=C(O)C1CN(S(=O)(=O)c2ccc3cc(Br)ccc3c2)CCN1C(=O)C1CCN(c2ccncc2)CC1 (stereo not drawn)
90 to 98 | COc1ccc(CN(CCCNc2ncc(Cc3ccc(C)nc3)c(=O)[nH]2)c2ccccn2)cc1
98 | O=C(c1cccs1)c1cnn2c(-c3cccc(-c4nnn(CCN5CCCC5)n4)c3)ccnc12
239 to 242 | CC(=O)c1ccc(-n2c(-c3cc(-c4ccc(S(C)(=O)=O)cc4)c(N4CCOCC4)s3)nc3ccccc3c2=O)cc1
114 to 116 | OCc1cccc(-c2cccc(F)c2)c1-c1cccc(F)c1

Compound | melting point [°C]
CC1Cc2cc3c(cc2C(c2ccc([N+](=O)[O-])cc2)=NN1C(=O)C(C)(C)C)OCO3 (stereo not drawn) | 164 to 166
Cc1c(C=O)ncn1Cc1ccccc1 | 107 to 110
Cc1nnc2n1-c1ccc(Br)cc1C(c1ccccc1Cl)=CC2 | 250 to 252
CC(C)(C)NCC(O)c1ccc(F)cc1 (stereo not drawn) | 117
